A short description of this series: Solubility determination of vrx and vrx-co-crystals in water. To be noted: 37° C. The format is physicochemical. On the procedure: Solubility determinations of the vrx (free drug substance), the vrx-fumaric acid co-crystal and the vrx-L-tartaric acid co-crystal described in the below comparative example are carried out as follows. To 20 mg of a solid sample, 5.0 ml water is added and the mixture is placed on a laboratory shaker at 500 rpm at 37° C. After 24 hours, a small sample of about 1.0 ml is recovered with a syringe and filtered through a 0.1 micrometer PVDF Millipore filtration unit. This sample is appropriately diluted and the concentration is determined by HPLC.

≈ marks a conversion by molar mass, not a printed value.

For orientation: solubility means the dissolved amount per volume that the medium holds.

`CC(c1ncncc1F)C(O)(Cn1cncn1)c1ccc(F)cc1F.O=C(O)C=CC(=O)O` (stereo not drawn) [Co-crystal with fumaric acid]: the “aqueous solubility higher than the free drug substance and the L-tartaric acid co-crystal” value (24 h, relative to table 4 comparators) is on record as “about 30%”. Besides, the “Solubility of Voriconazole” value (equilibration time 24 h, 20 mg solid in 5.0 ml, HPLC, value refers to Voriconazole) was 1300 µg/mL. The compound `C[C@@H](c1ncncc1F)[C@](O)(Cn1cncn1)c1ccc(F)cc1F` [Voriconazole free drug, (2R,3S)-2-(2,4-difluorophenyl)-3-(5-fluoropyrimidin-4-yl)-1-(1H-1,2,4-triazol-1-yl)butan-2-ol, reference compound] registered a solubility at 24 h (thermodynamic from solid, equilibration time 24 h, 20 mg solid in 5.0 ml, HPLC, value refers to Voriconazole) of 1010 µg/mL (≈ 2890 µM).

(Values after US20150087657A1, “MULTICOMPONENT CRYSTALLINE SYSTEM OF VORICONAZOLE WITH FUMARIC ACID” (BASF SE, priority 2011, published 2015).)
